The source of these data is BindingDB's records for doi:10.1021/jm060193m (Universit&#224, 2006).

In experiment [1] the target is T1, Integrase (Human immunodeficiency virus 1, UniProt Q7ZJM1). Kind of experiment: Inhibition of HIV1 integrase 3' processing activity.
For experiment [2], the target named is T1, Integrase. As to the kind of experiment: Inhibition of HIV1 integrase strand transfer activity.

T1 sequence (Q7ZJM1 whole entry): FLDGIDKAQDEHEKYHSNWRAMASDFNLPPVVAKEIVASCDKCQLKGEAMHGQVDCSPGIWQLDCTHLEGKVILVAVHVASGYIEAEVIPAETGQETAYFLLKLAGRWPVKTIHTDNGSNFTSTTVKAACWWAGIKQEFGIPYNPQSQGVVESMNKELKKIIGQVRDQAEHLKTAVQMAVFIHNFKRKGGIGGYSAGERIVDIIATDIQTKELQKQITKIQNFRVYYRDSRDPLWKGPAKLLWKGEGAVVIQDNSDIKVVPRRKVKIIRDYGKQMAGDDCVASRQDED

For the molecule `COC(=O)C(=O)CC(=O)c1ccccc1`, the half-inhibitory concentration (IC50) in experiment [1] and in experiment [2] was more than 333 µM throughout.

What is called IC50 is the concentration that gives 50% inhibition.
